We go through 2 compounds from ChEMBL document CHEMBL5678812, “Inhibitors of p21-activated kinases (PAKs)” (J Med Chem, 2015).

The structures appear in SMILES notation.

For orientation: inhibition means the change of the read-out against control, counted positive when it falls.

Experiment [1] has as its target Ribosomal protein S6 kinase alpha-1 (Homo sapiens) (UniProt Q15418). The experiment is described as follows: Inhibition of Rsk1 (unknown origin) at 0.1 uM relative to control.
Experiment [2] addresses Calcium/calmodulin-dependent protein kinase type II subunit beta (Homo sapiens) (UniProt Q13554). The experiment is described as follows: Inhibition of CaMKIIbeta (unknown origin) at 0.1 uM relative to control.
Experiment [3] addresses Eukaryotic elongation factor 2 kinase (Homo sapiens) (UniProt O00418). Briefly: Inhibition of eEF-2K (unknown origin) at 0.1 uM relative to control.
For experiment [4], the target named is Focal adhesion kinase 1 (Homo sapiens) (UniProt Q05397). Briefly: Inhibition of FAK (unknown origin) at 0.1 uM relative to control.
In experiment [5] the target is Inhibitor of nuclear factor kappa-B kinase subunit epsilon (Homo sapiens) (UniProt Q14164). Briefly: Inhibition of IKKepsilon (unknown origin) at 0.1 uM relative to control.
Chain of Inhibitor of nuclear factor kappa-B kinase subunit epsilon (Homo sapiens) (Q14164 whole entry): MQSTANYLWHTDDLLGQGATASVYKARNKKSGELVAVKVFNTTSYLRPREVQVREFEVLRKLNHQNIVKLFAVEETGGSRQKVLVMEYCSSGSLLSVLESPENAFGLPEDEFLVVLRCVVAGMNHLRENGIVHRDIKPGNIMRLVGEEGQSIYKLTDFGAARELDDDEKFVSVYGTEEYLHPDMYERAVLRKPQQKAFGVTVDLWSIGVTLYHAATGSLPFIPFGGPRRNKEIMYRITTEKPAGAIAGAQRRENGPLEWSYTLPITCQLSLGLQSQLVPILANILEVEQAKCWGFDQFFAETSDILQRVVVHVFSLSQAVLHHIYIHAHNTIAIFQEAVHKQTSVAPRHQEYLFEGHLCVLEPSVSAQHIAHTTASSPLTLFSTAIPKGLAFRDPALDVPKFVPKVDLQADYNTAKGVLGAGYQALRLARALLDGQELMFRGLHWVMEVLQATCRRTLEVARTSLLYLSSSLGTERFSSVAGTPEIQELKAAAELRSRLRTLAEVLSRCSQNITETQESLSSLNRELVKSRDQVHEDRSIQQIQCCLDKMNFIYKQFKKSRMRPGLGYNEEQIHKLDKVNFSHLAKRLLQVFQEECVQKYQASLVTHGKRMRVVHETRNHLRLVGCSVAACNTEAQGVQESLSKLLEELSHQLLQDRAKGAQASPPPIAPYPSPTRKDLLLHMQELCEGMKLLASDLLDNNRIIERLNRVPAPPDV
Experiment [6] deals with Serine/threonine-protein kinase MRCK alpha (Homo sapiens) (UniProt Q5VT25). Briefly: Inhibition of MRCKalpha (unknown origin) at 0.1 uM relative to control.
In experiment [7] the target is Protein kinase C delta type (Homo sapiens) (UniProt Q05655). The experiment is described as follows: Inhibition of PKCdelta (unknown origin) at 0.1 uM relative to control.
Chain of Protein kinase C delta type (Homo sapiens) (Q05655 whole entry, looked up): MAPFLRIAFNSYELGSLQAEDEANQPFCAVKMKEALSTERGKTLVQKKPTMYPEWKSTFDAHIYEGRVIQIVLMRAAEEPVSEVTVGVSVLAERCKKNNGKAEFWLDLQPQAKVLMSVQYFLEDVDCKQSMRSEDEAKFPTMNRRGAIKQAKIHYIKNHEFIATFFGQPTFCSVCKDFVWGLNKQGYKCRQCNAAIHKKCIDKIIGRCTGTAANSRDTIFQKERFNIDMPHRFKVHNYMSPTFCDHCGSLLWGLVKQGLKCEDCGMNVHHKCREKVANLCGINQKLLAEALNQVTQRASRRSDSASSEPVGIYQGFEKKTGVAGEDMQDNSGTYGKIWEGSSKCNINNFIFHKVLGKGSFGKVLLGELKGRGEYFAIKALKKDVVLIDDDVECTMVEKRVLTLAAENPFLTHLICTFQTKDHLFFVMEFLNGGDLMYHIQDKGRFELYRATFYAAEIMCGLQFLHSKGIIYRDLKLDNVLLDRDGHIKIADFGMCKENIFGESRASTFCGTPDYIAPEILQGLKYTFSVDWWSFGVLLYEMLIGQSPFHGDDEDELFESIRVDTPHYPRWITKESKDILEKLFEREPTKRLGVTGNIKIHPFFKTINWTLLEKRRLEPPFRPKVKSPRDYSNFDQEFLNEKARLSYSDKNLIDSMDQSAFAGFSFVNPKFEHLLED
Experiment [8] has as its target Maternal embryonic leucine zipper kinase (Homo sapiens) (UniProt Q14680). The experiment is described as follows: Inhibition of MELK (unknown origin) at 0.1 uM relative to control.
The target of experiment [9] is Dual specificity protein kinase CLK1 (Homo sapiens) (UniProt P49759). The experiment is described as follows: Inhibition of CLK1 (unknown origin) at 0.1 uM relative to control.
Experiment [10] deals with Tyrosine-protein kinase ITK/TSK (Homo sapiens) (UniProt Q08881). The experiment is described as follows: Inhibition of Itk (unknown origin) at 0.1 uM relative to control.
The target in experiment [11] is Phosphatidylinositol 4,5-bisphosphate 3-kinase catalytic subunit delta isoform (Homo sapiens) (UniProt O00329). Briefly: Inhibition of PI3Kdelta (unknown origin) at 0.1 uM relative to control.
In experiment [12] the target is Death-associated protein kinase 3 (Homo sapiens) (UniProt O43293). The experiment is described as follows: Inhibition of ZIPK (unknown origin) at 0.1 uM relative to control.
Experiment [13] concerns the target Aurora kinase B (Homo sapiens) (UniProt Q96GD4). The experiment is described as follows: Inhibition of Aurora B (unknown origin) at 0.1 uM relative to control.
In experiment [14] the target is MAP kinase-activated protein kinase 3 (Homo sapiens) (UniProt Q16644). Briefly: Inhibition of MAPKAPK3 (unknown origin) at 0.1 uM relative to control.
For experiment [15], the target named is MAP kinase-activated protein kinase 5 (Homo sapiens) (UniProt Q8IW41). The experiment is described as follows: Inhibition of PRAK (unknown origin) at 0.1 uM relative to control.
For experiment [16], the target named is Proto-oncogene tyrosine-protein kinase ROS (Homo sapiens) (UniProt P08922). The experiment is described as follows: Inhibition of Ros (unknown origin) at 0.1 uM relative to control.
Experiment [17] deals with T1, Cyclin-dependent kinase 5/CDK5 activator 1 (Homo sapiens) (UniProt Q00535+Q15078). The experiment is described as follows: Inhibition of CDK5/p35 (unknown origin) at 0.1 uM relative to control. The experiment is classed as protein-complex assay.
T1 sequence (Q00535 whole entry): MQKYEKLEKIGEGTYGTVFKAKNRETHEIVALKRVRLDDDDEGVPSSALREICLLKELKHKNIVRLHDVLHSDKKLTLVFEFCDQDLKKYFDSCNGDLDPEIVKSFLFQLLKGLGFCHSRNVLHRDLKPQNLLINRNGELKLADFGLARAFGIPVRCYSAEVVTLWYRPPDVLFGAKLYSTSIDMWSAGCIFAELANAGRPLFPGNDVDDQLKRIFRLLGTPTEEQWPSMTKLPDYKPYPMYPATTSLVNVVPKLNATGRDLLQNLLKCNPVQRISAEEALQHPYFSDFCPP
T1 sequence (Q15078 99-307 partner limits assumed): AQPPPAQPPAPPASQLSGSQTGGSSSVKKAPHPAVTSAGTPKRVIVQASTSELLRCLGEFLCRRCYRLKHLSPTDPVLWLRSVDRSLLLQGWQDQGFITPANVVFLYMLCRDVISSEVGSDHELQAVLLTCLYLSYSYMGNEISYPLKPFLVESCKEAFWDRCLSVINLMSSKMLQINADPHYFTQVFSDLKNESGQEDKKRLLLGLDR
Experiment [18] addresses Tyrosine-protein kinase receptor TYRO3 (Homo sapiens) (UniProt Q06418). The experiment is described as follows: Inhibition of Rse (unknown origin) at 0.1 uM relative to control.
For experiment [19], the target named is Mitogen-activated protein kinase 11 (Homo sapiens) (UniProt Q15759). Briefly: Inhibition of p38beta (unknown origin) at 0.1 uM relative to control.
Chain of Mitogen-activated protein kinase 11 (Homo sapiens) (Q15759 whole entry): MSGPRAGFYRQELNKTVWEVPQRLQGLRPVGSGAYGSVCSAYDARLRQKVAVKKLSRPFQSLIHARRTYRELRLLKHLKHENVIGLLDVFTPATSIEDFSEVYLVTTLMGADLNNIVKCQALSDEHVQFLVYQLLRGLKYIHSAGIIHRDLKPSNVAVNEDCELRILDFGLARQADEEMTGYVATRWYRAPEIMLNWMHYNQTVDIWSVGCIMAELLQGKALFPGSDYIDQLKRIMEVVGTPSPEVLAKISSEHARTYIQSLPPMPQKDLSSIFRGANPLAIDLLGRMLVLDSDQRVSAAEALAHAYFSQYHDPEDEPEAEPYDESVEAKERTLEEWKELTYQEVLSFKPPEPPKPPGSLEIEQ
For experiment [20], the target named is Vascular endothelial growth factor receptor 3 (Homo sapiens) (UniProt P35916). The experiment is described as follows: Inhibition of Flt4 (unknown origin) at 0.1 uM relative to control.
Experiment [21] has as its target Protein kinase C zeta type (Homo sapiens) (UniProt Q05513). The experiment is described as follows: Inhibition of PKCzeta (unknown origin) at 0.1 uM relative to control.
Experiment [22] addresses cGMP-dependent protein kinase 1 (Homo sapiens) (UniProt Q13976). Briefly: Inhibition of PKG1alpha (unknown origin) at 0.1 uM relative to control.
The target in experiment [23] is Calcium/calmodulin-dependent protein kinase type II subunit delta (Homo sapiens) (UniProt Q13557). Briefly: Inhibition of CaMKIIdelta (unknown origin) at 0.1 uM relative to control.
The target in experiment [24] is T1, Cyclin-dependent kinase 5/CDK5 activator 1 (Homo sapiens). Briefly: Inhibition of CDK5/p25 (unknown origin) at 0.1 uM relative to control. The experiment is classed as protein-complex assay.
In experiment [25] the target is Serine/threonine-protein kinase mTOR (Homo sapiens) (UniProt P42345). The experiment is described as follows: Inhibition of mTOR (unknown origin) at 0.1 uM relative to control.
The target of experiment [26] is Homeodomain-interacting protein kinase 1 (Homo sapiens) (UniProt Q86Z02). The experiment is described as follows: Inhibition of HIPK1 (unknown origin) at 0.1 uM relative to control.
The target of experiment [27] is G protein-coupled receptor kinase 5 (Homo sapiens) (UniProt P34947). The experiment is described as follows: Inhibition of GRK5 (unknown origin) at 0.1 uM relative to control.
Experiment [28] has as its target G protein-coupled receptor kinase 3 (Homo sapiens) (UniProt P35626). The experiment is described as follows: Inhibition of GRK3 (unknown origin) at 0.1 uM relative to control.
In experiment [29] the target is Megakaryocyte-associated tyrosine-protein kinase (Homo sapiens) (UniProt P42679). The experiment is described as follows: Inhibition of Hyl (unknown origin) at 0.1 uM relative to control.
The target in experiment [30] is Mitogen-activated protein kinase kinase kinase kinase 4 (Homo sapiens) (UniProt O95819). The experiment is described as follows: Inhibition of NIK (unknown origin) at 0.1 uM relative to control.
In experiment [31] the target is SRSF protein kinase 1 (Homo sapiens) (UniProt Q96SB4). Briefly: Inhibition of SRPK1 (unknown origin) at 0.1 uM relative to control.
Experiment [32] deals with Tyrosine-protein kinase Fgr (Homo sapiens) (UniProt P09769). The experiment is described as follows: Inhibition of Fgr (unknown origin) at 0.1 uM relative to control.
Chain of Tyrosine-protein kinase Fgr (Homo sapiens) (P09769 2-529 limits assumed): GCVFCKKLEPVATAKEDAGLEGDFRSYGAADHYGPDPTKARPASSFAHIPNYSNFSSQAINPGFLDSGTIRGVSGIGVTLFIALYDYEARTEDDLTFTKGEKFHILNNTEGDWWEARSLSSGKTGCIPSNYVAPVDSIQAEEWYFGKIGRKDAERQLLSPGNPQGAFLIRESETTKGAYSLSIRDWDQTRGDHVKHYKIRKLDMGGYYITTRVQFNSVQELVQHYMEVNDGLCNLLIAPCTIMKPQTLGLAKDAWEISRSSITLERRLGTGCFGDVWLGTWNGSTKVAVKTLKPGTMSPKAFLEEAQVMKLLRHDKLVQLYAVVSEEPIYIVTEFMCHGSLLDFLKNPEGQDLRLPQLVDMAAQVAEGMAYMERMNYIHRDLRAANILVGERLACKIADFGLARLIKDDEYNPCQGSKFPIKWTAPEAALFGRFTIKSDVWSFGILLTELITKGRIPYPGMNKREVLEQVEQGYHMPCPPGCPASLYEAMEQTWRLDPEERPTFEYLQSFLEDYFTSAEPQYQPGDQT
The target in experiment [33] is Dual specificity tyrosine-phosphorylation-regulated kinase 1A (Homo sapiens) (UniProt Q13627). The experiment is described as follows: Inhibition of DYRK1A (unknown origin) at 0.1 uM relative to control.
The target in experiment [34] is Dual specificity mitogen-activated protein kinase kinase 2 (Homo sapiens) (UniProt P36507). Briefly: Inhibition of MEK2 (unknown origin) at 0.1 uM relative to control.
For experiment [35], the target named is TAK1/TAB1 (Homo sapiens) (UniProt Q15750+O43318). The experiment is described as follows: Inhibition of TAK1-TAB1 (unknown origin) at 0.1 uM relative to control. The class given is protein-complex assay.
Experiment [36] has as its target Phosphatidylinositol 4,5-bisphosphate 3-kinase catalytic subunit gamma isoform (Homo sapiens) (UniProt P48736). Briefly: Inhibition of PI3Kgamma (unknown origin) at 0.1 uM relative to control.
Experiment [37] has as its target Receptor-interacting serine/threonine-protein kinase 2 (Homo sapiens) (UniProt O43353). Briefly: Inhibition of RIPK2 (unknown origin) at 0.1 uM relative to control.
For experiment [38], the species on record is Homo sapiens. The experiment is described as follows: Inhibition of KHS1 (unknown origin) at 0.1 uM relative to control.
Experiment [39] concerns the target Protein kinase C eta type (Homo sapiens) (UniProt P24723). The experiment is described as follows: Inhibition of PKCeta (unknown origin) at 0.1 uM relative to control.

Chain of Calcium/calmodulin-dependent protein kinase type II subunit beta (Homo sapiens) (Q13554 whole entry): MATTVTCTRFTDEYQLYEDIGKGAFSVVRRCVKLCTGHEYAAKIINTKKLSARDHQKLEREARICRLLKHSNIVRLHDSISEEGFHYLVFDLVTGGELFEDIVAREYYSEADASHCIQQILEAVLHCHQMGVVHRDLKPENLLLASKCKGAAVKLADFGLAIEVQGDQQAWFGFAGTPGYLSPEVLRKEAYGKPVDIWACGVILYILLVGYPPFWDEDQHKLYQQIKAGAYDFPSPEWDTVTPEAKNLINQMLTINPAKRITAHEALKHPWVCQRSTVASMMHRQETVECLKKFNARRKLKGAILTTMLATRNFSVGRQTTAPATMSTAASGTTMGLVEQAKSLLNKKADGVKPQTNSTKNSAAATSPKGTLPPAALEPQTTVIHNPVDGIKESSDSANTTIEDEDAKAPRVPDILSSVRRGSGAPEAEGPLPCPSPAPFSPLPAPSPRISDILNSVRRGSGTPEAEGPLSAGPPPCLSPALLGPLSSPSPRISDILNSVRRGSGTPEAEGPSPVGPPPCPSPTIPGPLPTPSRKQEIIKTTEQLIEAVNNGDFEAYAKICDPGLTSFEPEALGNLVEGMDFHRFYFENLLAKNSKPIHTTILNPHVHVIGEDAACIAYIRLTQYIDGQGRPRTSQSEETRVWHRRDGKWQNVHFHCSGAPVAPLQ
Chain of Receptor-interacting serine/threonine-protein kinase 2 (Homo sapiens) (O43353 whole entry): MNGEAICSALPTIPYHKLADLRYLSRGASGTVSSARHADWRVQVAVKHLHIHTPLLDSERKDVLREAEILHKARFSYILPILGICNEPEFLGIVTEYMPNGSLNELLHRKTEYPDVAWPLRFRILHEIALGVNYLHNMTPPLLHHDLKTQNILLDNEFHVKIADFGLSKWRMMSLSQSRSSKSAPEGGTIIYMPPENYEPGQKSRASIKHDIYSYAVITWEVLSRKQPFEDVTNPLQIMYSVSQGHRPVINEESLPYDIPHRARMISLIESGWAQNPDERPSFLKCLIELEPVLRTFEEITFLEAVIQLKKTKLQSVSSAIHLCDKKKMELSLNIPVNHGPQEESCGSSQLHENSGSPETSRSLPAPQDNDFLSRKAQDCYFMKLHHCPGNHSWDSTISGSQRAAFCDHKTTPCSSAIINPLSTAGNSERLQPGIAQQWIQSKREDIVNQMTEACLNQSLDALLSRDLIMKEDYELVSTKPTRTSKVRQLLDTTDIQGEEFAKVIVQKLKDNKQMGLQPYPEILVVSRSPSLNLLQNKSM
Chain of Tyrosine-protein kinase receptor TYRO3 (Homo sapiens) (Q06418 whole entry): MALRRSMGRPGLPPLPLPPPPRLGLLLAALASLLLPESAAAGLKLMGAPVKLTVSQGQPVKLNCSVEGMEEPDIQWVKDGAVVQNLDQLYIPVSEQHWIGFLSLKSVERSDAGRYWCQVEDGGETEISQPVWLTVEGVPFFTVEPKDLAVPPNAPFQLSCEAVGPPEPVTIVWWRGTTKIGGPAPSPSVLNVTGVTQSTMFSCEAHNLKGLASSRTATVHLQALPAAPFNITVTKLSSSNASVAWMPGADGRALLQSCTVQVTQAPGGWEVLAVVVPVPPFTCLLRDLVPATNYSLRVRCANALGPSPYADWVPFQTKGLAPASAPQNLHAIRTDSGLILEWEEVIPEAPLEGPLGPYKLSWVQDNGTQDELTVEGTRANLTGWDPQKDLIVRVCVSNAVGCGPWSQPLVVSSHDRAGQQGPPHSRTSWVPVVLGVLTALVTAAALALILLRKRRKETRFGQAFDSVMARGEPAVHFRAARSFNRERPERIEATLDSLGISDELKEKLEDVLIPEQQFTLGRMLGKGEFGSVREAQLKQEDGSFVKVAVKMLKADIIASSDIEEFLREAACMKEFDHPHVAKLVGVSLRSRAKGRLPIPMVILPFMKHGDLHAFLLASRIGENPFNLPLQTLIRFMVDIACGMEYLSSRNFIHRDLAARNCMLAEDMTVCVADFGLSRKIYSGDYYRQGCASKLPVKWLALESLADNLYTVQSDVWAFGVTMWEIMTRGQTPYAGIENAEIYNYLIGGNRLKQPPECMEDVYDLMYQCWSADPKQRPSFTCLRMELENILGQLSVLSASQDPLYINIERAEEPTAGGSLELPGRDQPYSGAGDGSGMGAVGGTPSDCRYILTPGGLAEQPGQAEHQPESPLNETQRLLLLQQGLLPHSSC

Regarding `COCCNc1nc2ccc(C#CC3(O)CCCCC3)cc2n1-c1ccnc(N)n1`, the inhibition in experiment [1] was 6.7%; in experiment [2], 11.7%; in [3], 4.3%; in [4], 3.5%; in experiment [5], 6%; in experiment [6], -2.4%. The inhibition is 0.5% in experiment [7]; 4.1% in [8]; 11.3% in experiment [9]; 4% in experiment [10]; -4.8% in experiment [11]; 2.9% in [12]. Further, the inhibition in experiment [13] was 4.7%; in experiment [14], 4.8%; in [15], 5%; in experiment [16], 6.8%; in experiment [17] it was -1.6%; in experiment [18] it was 1.4%. Besides, the inhibition is -6.4% in experiment [19]; 1% in experiment [20]; 22.8% in experiment [21]; 9.3% in experiment [22]; 6.9% in experiment [23]; 4.3% in [24]. Also, the inhibition is -2.4% in experiment [25]; 1.7% in experiment [26]; 2.5% in [27]; 1.1% in experiment [28]; 6.6% in experiment [29]; -0.5% in [30]. Besides, the inhibition in experiment [31] was 5.4%; in [32] it was 3.6%; in experiment [33], -2%; in experiment [34] it was -0.6%.
For `CN1CCc2cc(-c3cnc4[nH]cc(C(=O)c5ccccc5Cl)c4c3)ccc2C1`, the inhibition in [35] stood at 27.9%; in [36], 4.1%; in [37] it was 101%; in experiment [38], 105%; in [39] it was 17%.
